Experiments:
Format in all cases: cell-based
[1] = target: BTK (Homo sapiens, UniProt Q06187); test: BTK degradation, DC50 and Dmax of Table 1 (cell line not given); set-up: endogenous in cells; details: for DC50: concentration giving 50% reduction of BTK expression level
[2] = test system: JeKo-1 cells; test: Antiproliferative effect, MTS cell viability assay, JeKo-1 cells; details: Homo sapiens; JeKo-1 mantle cell lymphoma cells; read-out: IC50 (anti-proliferation) JeKO-1 cells
Procedure, shortened: (§1)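 Mino and JeKo-1 mantle B-cell lymphoma lines were exposed to compound at 0, 0.001, 0.01, 0.1, 1 and 10 μM for 72 h. Viability was read by MTS reduction to formazan, measured as absorbance at 490 nm.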

[3] = test system: Mino cells; test: Antiproliferative effect, MTS cell viability assay, Mino cells; details: Homo sapiens, MINO, Mino mantle cell lymphoma cells; read-out: IC50 (anti-proliferation) Mino cells
Procedure, shortened: as §1

Chain of BTK (Q06187 whole entry): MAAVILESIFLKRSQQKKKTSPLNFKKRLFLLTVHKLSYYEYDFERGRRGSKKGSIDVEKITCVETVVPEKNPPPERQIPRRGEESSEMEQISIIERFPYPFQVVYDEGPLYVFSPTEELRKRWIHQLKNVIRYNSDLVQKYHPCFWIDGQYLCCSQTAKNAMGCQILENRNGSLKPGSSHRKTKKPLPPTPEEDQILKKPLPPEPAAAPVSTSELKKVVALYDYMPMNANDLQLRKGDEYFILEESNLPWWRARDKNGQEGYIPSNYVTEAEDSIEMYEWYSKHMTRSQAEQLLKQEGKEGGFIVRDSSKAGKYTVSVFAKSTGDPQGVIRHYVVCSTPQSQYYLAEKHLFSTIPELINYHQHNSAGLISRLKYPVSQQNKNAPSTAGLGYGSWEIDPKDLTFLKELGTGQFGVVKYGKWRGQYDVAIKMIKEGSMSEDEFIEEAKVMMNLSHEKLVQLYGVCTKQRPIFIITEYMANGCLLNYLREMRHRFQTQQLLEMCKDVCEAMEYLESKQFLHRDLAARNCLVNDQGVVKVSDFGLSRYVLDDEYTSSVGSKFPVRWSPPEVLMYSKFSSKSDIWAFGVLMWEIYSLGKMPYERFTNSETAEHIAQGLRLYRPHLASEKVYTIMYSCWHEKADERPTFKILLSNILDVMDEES

| SMILES | Dmax [1] | DC50 [1] | IC50 [2] | IC50 [3] |
| --- | --- | --- | --- | --- |
| Nc1ncnc2c1c(-c1ccc(Oc3ccccc3)cc1)nn2C1CCN(C(=O)N2CCC(N3CCN(c4ccc5c(c4)CN(C4CCC(=O)NC4=O)C5=O)CC3)CC2)CC1 (stereo not shown) [Compound 82, 3-(5-(4-(1-(4-(4-amino-3-(4-phenoxyphenyl)-1H-pyrazolo(3,4-d)pyrimidin-1-yl)piperidine-1-carbonyl)piperidin-4-yl)piperazin-1-yl)-1-oxoisoindolin-2-yl)piperidine-2,6-dione] | > 75% | 10 to 50 nM | > 10000 nM | > 10000 nM |
| Nc1ncnc2c1c(-c1ccc(Oc3ccccc3)cc1)nn2[C@@H]1CCCN(C2CCN(C(=O)N3CCC(C4CCN(c5ccc6c(c5)CN(C5CCC(=O)NC5=O)C6=O)CC4)CC3)CC2)C1 (stereo partly drawn) [Compound 164, 3-(5-(1′-((R)-3-(4-amino-3-(4-phenoxyphenyl)-1H-pyrazolo[3,4-d]pyrimidin-1-yl)-[1,4′-bipiperidine]-1′-carbonyl)-[4,4′-bipiperidin]-1-yl)-1-oxoisoindolin-2-yl)piperidine-2,6-dione] | > 75% | 10 to 50 nM | > 10000 nM | 1000 to 10000 nM |
| Nc1ncnc2c1c(-c1ccc(Oc3ccccc3)cc1)nn2[C@@H]1CCCN(C2CCN(CCN3CCC(c4ccc5c(c4)C(=O)N(C4CCC(=O)NC4=O)C5=O)CC3)CC2)C1 (stereo partly drawn) [Compound 149, 5-(1-(2-((R)-3-(4-amino-3-(4-phenoxyphenyl)-1H-pyrazolo[3,4-d]pyrimidin-1-yl)-[1,4′-bipiperidin]-1′-yl)ethyl)piperidin-4-yl)-2-(2,6-dioxopiperidin-3-yl)isoindoline-1,3-dione] | > 90% | 10 to 50 nM | > 10000 nM | 1000 to 10000 nM |
| Nc1ncnc2c1c(-c1ccc(Oc3ccccc3)cc1)nn2[C@@H]1CCCN(C(=O)N2CCN(CC3CCN(c4ccc5c(c4)C(=O)N(C4CCC(=O)NC4=O)C5=O)CC3)CC2)C1 (stereo partly drawn) [Compound 57, 5-(4-((4-((R)-3-(4-amino-3-(4-phenoxyphenyl)-1H-pyrazolo[3,4-d]pyrimidin-1-yl)piperidine-1-carbonyl)piperazin-1-yl)methyl)piperidin-1-yl)-2-(2,6-dioxopiperidin-3-yl)isoindoline-1,3-dione] | > 90% | 10 to 50 nM | 1000 to 10000 nM | 1000 to 10000 nM |
| Nc1ncnc2c1c(-c1ccc(Oc3ccccc3)cc1)nn2C1CCN(C(=O)N2CCC(CCC3CCN(c4ccc5c(c4)CN(C4CCC(=O)NC4=O)C5=O)CC3)CC2)CC1 (stereo not shown) [Compound 102, 3-(5-(4-(2-(1-(4-(4-amino-3-(4-phenoxyphenyl)-1H-pyrazolo[3,4-d]pyrimidin-1-yl)piperidine-1-carbonyl)piperidin-4-yl)ethyl)piperidin-1-yl)-1-oxoisoindolin-2-yl)piperidine-2,6-dione] | > 90% | 10 to 50 nM | > 10000 nM | 1000 to 10000 nM |
| Nc1ncnc2c1c(-c1ccc(Oc3ccccc3)cc1)nn2[C@@H]1CCCN(C2CCN(C(=O)N3CCN(CCCC4CCN(c5ccc6c(c5)C(=O)N(C5CCC(=O)NC5=O)C6=O)CC4)CC3)CC2)C1 (stereo partly drawn) [Compound 189, 5-(4-(3-(4-((R)-3-(4-amino-3-(4-phenoxyphenyl)-1H-pyrazolo[3,4-d]pyrimidin-1-yl)-[1,4′-bipiperidine]-1′-carbonyl)piperazin-1-yl)propyl)piperidin-1-yl)-2-(2,6-dioxopiperidin-3-yl)isoindoline-1,3-dione] | > 75% | > 50 nM | > 10000 nM | 1000 to 10000 nM |
| Nc1ncnc2c1c(-c1ccc(Oc3ccccc3)cc1)nn2[C@@H]1CCCN(C2CCN(CC3CCN(c4ccc5c(c4)CN(C4CCC(=O)NC4=O)C5=O)CC3)CC2)C1 (stereo partly drawn) [Compound 144, 3-(5-(4-(((R)-3-(4-amino-3-(4-phenoxyphenyl)-1H-pyrazolo[3,4-d]pyrimidin-1-yl)-[1,4′-bipiperidin]-1′-yl)methyl)piperidin-1-yl)-1-oxoisoindolin-2-yl)piperidine-2,6-dione] | > 90% | 10 to 50 nM | > 10000 nM | 1000 to 10000 nM |
| Nc1ncnc2c1c(-c1ccc(Oc3ccccc3)cc1)nn2[C@@H]1CCCN(CC2CCN(CCC3CCN(c4ccc5c(c4)CN(C4CCC(=O)NC4=O)C5=O)CC3)CC2)C1 (stereo partly drawn) [Compound 132, 3-(5-(4-(2-(4-(((R)-3-(4-amino-3-(4-phenoxyphenyl)-1H-pyrazolo[3,4-d]pyrimidin-1-yl)piperidin-1-yl)methyl)piperidin-1-yl)ethyl)piperidin-1-yl)-1-oxoisoindolin-2-yl)piperidine-2,6-dione] | > 90% | 10 to 50 nM | 1000 to 10000 nM | 1000 to 10000 nM |
| Nc1ncnc2c1c(-c1ccc(Oc3ccccc3)cc1)nn2C1CCN(CCOCCN2CCC(c3ccc4c(c3)CN(C3CCC(=O)NC3=O)C4=O)CC2)CC1 (stereo not shown) [Compound 12, 3-(5-(1-(2-(2-(4-(4-amino-3-(4-phenoxyphenyl)-1H-pyrazolo[3,4-d]pyrimidin-1-yl)piperidin-1-yl)ethoxy)ethyl)piperidin-4-yl)-1-oxoisoindolin-2-yl)piperidine-2,6-dione] | > 90% | 10 to 50 nM | < 1000 nM | < 1000 nM |
| Nc1ncnc2c1c(-c1ccc(Oc3ccccc3)cc1)nn2[C@@H]1CCCN(C2CCN(C(=O)N3CCN(c4ccc5c(c4)CN(C4CCC(=O)NC4=O)C5=O)CC3)CC2)C1 (stereo partly drawn) [Compound 160, 3-(5-(4-((R)-3-(4-amino-3-(4-phenoxyphenyl)-1H-pyrazolo[3,4-d]pyrimidin-1-yl)-[1,4′-bipiperidine]-1′-carbonyl)piperazin-1-yl)-1-oxoisoindolin-2-yl)piperidine-2,6-dione] | > 50% | > 50 nM | > 10000 nM | 1000 to 10000 nM |
| Nc1ncnc2c1c(-c1ccc(Oc3ccccc3)cc1)nn2C1CCCN(CCOCCN2CCC(c3ccc4c(c3)C(=O)N(C3CCC(=O)NC3=O)C4=O)CC2)C1 (stereo not shown) [Compound 15, 5-(1-(2-(2-(3-(4-amino-3-(4-phenoxyphenyl)-1H-pyrazolo[3,4-d]pyrimidin-1-yl)piperidin-1-yl)ethoxy)ethyl)piperidin-4-yl)-2-(2,6-dioxopiperidin-3-yl)isoindoline-1,3-dione] | > 75% | 10 to 50 nM | 1000 to 10000 nM | 1000 to 10000 nM |
| Nc1ncnc2c1c(-c1ccc(Oc3ccccc3)cc1)nn2C1CCCN(CCOCCN2CCN(c3ccc4c(c3)C(=O)N(C3CCC(=O)NC3=O)C4=O)CC2)C1 (stereo not shown) [Compound 7, 5-(4-(2-(2-(3-(4-amino-3-(4-phenoxyphenyl)-1H-pyrazolo[3,4-d]pyrimidin-1-yl)piperidin-1-yl)ethoxy)ethyl)piperazin-1-yl)-2-(2,6-dioxopiperidin-3-yl)isoindoline-1,3-dione] | > 75% | 10 to 50 nM | 1000 to 10000 nM | 1000 to 10000 nM |
| Nc1ncnc2c1c(-c1ccc(Oc3ccccc3)cc1)nn2[C@@H]1CCCN(C(=O)N2CCC(CC3CCN(c4ccc5c(c4)C(=O)N(C4CCC(=O)NC4=O)C5=O)CC3)CC2)C1 (stereo partly drawn) [Compound 59, 5-(4-((1-((R)-3-(4-amino-3-(4-phenoxyphenyl)-1H-pyrazolo[3,4-d]pyrimidin-1-yl)piperidine-1-carbonyl)piperidin-4-yl)methyl)piperidin-1-yl)-2-(2,6-dioxopiperidin-3-yl)isoindoline-1,3-dione] | > 90% | 10 to 50 nM | < 1000 nM | < 1000 nM |

From patent publication US12139492B2 (Endotarget Inc., priority 2021, dated 2024)
